Consider 25 compounds from US12358897B2, “Compounds and method of treating COVID-19” (Pfizer Inc., priority 2020, dated 2025).

For the experiment, the target named is T1, full-length SARS-CoV-2 3CL protease (Severe acute respiratory syndrome coronavirus 2, UniProt P0DTD1).
T1 construct: measures the activity of full-length SARS-CoV-2 3CL protease
The experiment in a line: SARS-CoV-2 Coronavirus 3C Protease FRET Assay (Dabcyl-KTSAVLQ-SGFRKME-Edans substrate). The class given is biochemical. The settings on record: 15 nM enzyme, 25 μM peptide substrate, 60 minutes at 23° C.; Morrison equation fit; read-out: Geometric Mean Ki.

Molecules are shown by their SMILES.

In general, Ki refers to a measure of affinity in units of concentration, obtained from inhibition or displacement. On to `COc1cccc2[nH]c(C(=O)N[C@@H](CC(C)C)C(=O)N[C@@H](C[C@@H]3CCNC3=O)C(=O)COC(=O)CN(C)C)cc12` [Example 4, (3S)-3-({N-[(4-methoxy-1H-indol-2-yl)carbonyl]-L-leucyl}amino)-2-oxo-4-[(3S)-2-oxopyrrolidin-3-yl]butyl N,N-dimethylglycinate], for which the Ki came out at 2.98 nM.

In the case of `CCC(=O)OCC(=O)[C@H](C[C@@H]1CCNC1=O)NC(=O)[C@H](CC(C)C)NC(=O)c1cc2c(OC)cccc2[nH]1` [Example 9, (3S)-3-({N-[(4-methoxy-1H-indol-2-yl)carbonyl]-L-leucyl}amino)-2-oxo-4-[(3S)-2-oxopyrrolidin-3-yl]butyl propanoate], the Ki stood at 33.6 nM.

`COc1cccc2[nH]c(C(=O)N[C@@H](CC(C)C)C(=O)N[C@@H](C[C@@H]3CCNC3=O)C(=O)COC(=O)c3ccccc3C)cc12` [Example 11, (3S)-3-({N-[(4-methoxy-1H-indol-2-yl)carbonyl]-L-leucyl}amino)-2-oxo-4-[(3S)-2-oxopyrrolidin-3-yl]butyl 2-methylbenzoate]: the inhibition constant Ki is 71.4 nM.

Take `COc1cccc2[nH]c(C(=O)N[C@@H](CC(C)C)C(=O)N[C@@H](C[C@@H]3CCNC3=O)C(=O)COC(=O)C3(C)CCCCC3)cc12` [Example 13, (3S)-3-({N-[(4-methoxy-1H-indol-2-yl)carbonyl]-L-leucyl}amino)-2-oxo-4-[(3S)-2-oxopyrrolidin-3-yl]butyl 1-methylcyclohexanecarboxylate]: the Ki was 139 nM.

For `COc1ccccc1C(=O)OCC(=O)[C@H](C[C@@H]1CCNC1=O)NC(=O)[C@H](CC(C)C)NC(=O)c1cc2c(OC)cccc2[nH]1` [Example 15, (3S)-3-({N-[(4-methoxy-1H-indol-2-yl)carbonyl]-L-leucyl}amino)-2-oxo-4-[(3S)-2-oxopyrrolidin-3-yl]butyl 2-methoxybenzoate], the Ki is 147 nM.

Turning to `COc1cccc2[nH]c(C(=O)N[C@@H](CC(C)C)C(=O)N[C@@H](C[C@@H]3CCNC3=O)C(=O)COC(=O)c3ccccc3Cl)cc12` [Example 16, (3S)-3-({N-[(4-methoxy-1H-indol-2-yl)carbonyl]-L-leucyl}amino)-2-oxo-4-[(3S)-2-oxopyrrolidin-3-yl]butyl 2-chlorobenzoate], the Ki was 10.5 nM.

Consider `COc1cccc2[nH]c(C(=O)N[C@@H](CC(C)C)C(=O)N[C@@H](C[C@@H]3CCNC3=O)C(=O)COC(=O)C3(C)CCN(C)CC3)cc12` [Example 17, (3S)-3-({N-[(4-methoxy-1H-indol-2-yl)carbonyl]-L-leucyl}amino)-2-oxo-4-[(3S)-2-oxopyrrolidin-3-yl]butyl 1,4-dimethylpiperidine-4-carboxylate], for which the Ki worked out at 17.5 nM.

In the case of `CC[C@H](C)C(=O)OCC(=O)[C@H](C[C@@H]1CCNC1=O)NC(=O)[C@H](CC(C)C)NC(=O)c1cc2c(OC)cccc2[nH]1` [Example 18, (3S)-3-({N-[(4-methoxy-1H-indol-2-yl)carbonyl]-L-leucyl}amino)-2-oxo-4-[(3S)-2-oxopyrrolidin-3-yl]butyl (2S)-2-methylbutanoate], the inhibition constant (Ki) worked out at 65.7 nM.

Regarding `CC[C@@H](C)C(=O)OCC(=O)[C@H](C[C@@H]1CCNC1=O)NC(=O)[C@H](CC(C)C)NC(=O)c1cc2c(OC)cccc2[nH]1` [Example 19, (3S)-3-({N-[(4-methoxy-1H-indol-2-yl)carbonyl]-L-leucyl}amino)-2-oxo-4-[(3S)-2-oxopyrrolidin-3-yl]butyl (2R)-2-methylbutanoate], the Ki was found to be 64.8 nM.

On to `COc1cccc2[nH]c(C(=O)N[C@@H](CC(C)C)C(=O)N[C@@H](C[C@@H]3CCNC3=O)C(=O)COC(=O)C3(C)CC3)cc12` [Example 21, (3S)-3-({N-[(4-methoxy-1H-indol-2-yl)carbonyl]-L-leucyl}amino)-2-oxo-4-[(3S)-2-oxopyrrolidin-3-yl]butyl 1-methylcyclopropanecarboxylate], for which the Ki is 104 nM.

With `COc1cccc2[nH]c(C(=O)N[C@@H](CC(C)C)C(=O)N[C@@H](C[C@@H]3CCNC3=O)C(=O)COC(=O)c3cnccc3C)cc12` [Example 23, (3S)-3-({N-[(4-methoxy-1H-indol-2-yl)carbonyl]-L-leucyl}amino)-2-oxo-4-[(3S)-2-oxopyrrolidin-3-yl]butyl 4-methylpyridine-3-carboxylate], the Ki is 21.2 nM.

Consider `COc1cccc2[nH]c(C(=O)N[C@@H](CC(C)C)C(=O)N[C@@H](C[C@@H]3CCNC3=O)C(=O)COC(=O)c3cccnc3C)cc12` [Example 24, (3S)-3-({N-[(4-methoxy-1H-indol-2-yl)carbonyl]-L-leucyl}amino)-2-oxo-4-[(3S)-2-oxopyrrolidin-3-yl]butyl 2-methylpyridine-3-carboxylate], for which the Ki worked out at 14.2 nM.

Turning to `COc1cccc2[nH]c(C(=O)N[C@@H](CC(C)C)C(=O)N[C@@H](C[C@@H]3CCNC3=O)C(=O)COC(=O)[C@H]3CCCN3C)cc12` [Example 27, (3S)-3-({N-[(4-methoxy-1H-indol-2-yl)carbonyl]-L-leucyl}amino)-2-oxo-4-[(3S)-2-oxopyrrolidin-3-yl]butyl 1-methyl-D-prolinate], the Ki is 0.0321 nM.

For the compound `COc1cccc2[nH]c(C(=O)N[C@@H](CC(C)C)C(=O)N[C@@H](C[C@@H]3CCNC3=O)C(=O)COC(=O)[C@@H]3CCCN3C)cc12` [Example 28, (3S)-3-({N-[(4-methoxy-1H-indol-2-yl)carbonyl]-L-leucyl}amino)-2-oxo-4-[(3S)-2-oxopyrrolidin-3-yl]butyl 1-methyl-L-prolinate], the Ki is 2.47 nM.

With `COc1cccc2[nH]c(C(=O)N[C@@H](CC(C)C)C(=O)N[C@@H](C[C@@H]3CCNC3=O)C(=O)COC(=O)c3cccnc3)cc12` [Example 29, (3S)-3-({N-[(4-methoxy-1H-indol-2-yl)carbonyl]-L-leucyl}amino)-2-oxo-4-[(3S)-2-oxopyrrolidin-3-yl]butyl pyridine-3-carboxylate], the Ki was found to be 9.57 nM.

In the case of `COc1cccc2[nH]c(C(=O)N[C@@H](CC(C)C)C(=O)N[C@@H](C[C@@H]3CCNC3=O)C(=O)COC(=O)C3CCN(C)CC3)cc12` [Example 30, (3S)-3-({N-[(4-methoxy-1H-indol-2-yl)carbonyl]-L-leucyl}amino)-2-oxo-4-[(3S)-2-oxopyrrolidin-3-yl]butyl 1-methylpiperidine-4-carboxylate], the Ki stood at 6.13 nM.

Regarding `COc1cccc2[nH]c(C(=O)N[C@@H](CC(C)C)C(=O)N[C@@H](C[C@@H]3CCNC3=O)C(=O)COC(=O)c3ccncc3)cc12` [Example 34, (3S)-3-({N-[(4-methoxy-1H-indol-2-yl)carbonyl]-L-leucyl}amino)-2-oxo-4-[(3S)-2-oxopyrrolidin-3-yl]butyl pyridine-4-carboxylate], the Ki turned out to be 0.598 nM.

For `COc1cccc2[nH]c(C(=O)N[C@@H](CC(C)C)C(=O)N[C@@H](C[C@@H]3CCNC3=O)C(=O)COC(=O)c3ccccn3)cc12` [Example 35, (3S)-3-({N-[(4-methoxy-1H-indol-2-yl)carbonyl]-L-leucyl}amino)-2-oxo-4-[(3S)-2-oxopyrrolidin-3-yl]butyl pyridine-2-carboxylate], the Ki was 4.43 nM.

For the compound `COc1cccc2[nH]c(C(=O)N[C@@H](CC(C)C)C(=O)N[C@@H](C[C@@H]3CCNC3=O)C(=O)COC(=O)[C@H]3CCCCN3C)cc12` [Example 37, (3S)-3-({N-[(4-methoxy-1H-indol-2-yl)carbonyl]-L-leucyl}amino)-2-oxo-4-[(3S)-2-oxopyrrolidin-3-yl]butyl (2R)-1-methylpiperidine-2-carboxylate], the Ki came to 1.42 nM.

As to `COc1cccc2[nH]c(C(=O)N[C@@H](CC(C)C)C(=O)N[C@@H](C[C@@H]3CCNC3=O)C(=O)COC(=O)c3cn(C)nc3C)cc12` [Example 39, (3S)-3-({N-[(4-methoxy-1H-indol-2-yl)carbonyl]-L-leucyl}amino)-2-oxo-4-[(3S)-2-oxopyrrolidin-3-yl]butyl 1,3-dimethyl-1H-pyrazole-4-carboxylate], the Ki was 91.9 nM.

As to `COc1cccc2[nH]c(C(=O)N[C@@H](CC(C)C)C(=O)N[C@@H](C[C@@H]3CCNC3=O)C(=O)COC(=O)c3ncn(C)c3C)cc12` [Example 40, (3S)-3-({N-[(4-methoxy-1H-indol-2-yl)carbonyl]-L-leucyl}amino)-2-oxo-4-[(3S)-2-oxopyrrolidin-3-yl]butyl 1,5-dimethyl-1H-imidazole-4-carboxylate], the Ki was 306 nM.

Regarding `COc1cccc2[nH]c(C(=O)N[C@@H](CC(C)C)C(=O)N[C@@H](C[C@@H]3CCNC3=O)C(=O)COC(=O)c3ccnn3C)cc12` [Example 42, (3S)-3-({N-[(4-methoxy-1H-indol-2-yl)carbonyl]-L-leucyl}amino)-2-oxo-4-[(3S)-2-oxopyrrolidin-3-yl]butyl 1-methyl-1H-pyrazole-5-carboxylate], the Ki is 5.25 nM.

In the case of `COc1cccc2[nH]c(C(=O)N[C@@H](CC(C)C)C(=O)N[C@@H](C[C@@H]3CCNC3=O)C(=O)COC(=O)c3ccn(C)n3)cc12` [Example 43, (3S)-3-({N-[(4-methoxy-1H-indol-2-yl)carbonyl]-L-leucyl}amino)-2-oxo-4-[(3S)-2-oxopyrrolidin-3-yl]butyl 1-methyl-1H-pyrazole-3-carboxylate], the inhibition constant Ki was found to be 118 nM.

Take `COc1cccc2[nH]c(C(=O)N[C@@H](CC(C)C)C(=O)N[C@@H](C[C@@H]3CCNC3=O)C(=O)COC(=O)c3cnn(C)c3)cc12` [Example 44, (3S)-3-({N-[(4-methoxy-1H-indol-2-yl)carbonyl]-L-leucyl}amino)-2-oxo-4-[(3S)-2-oxopyrrolidin-3-yl]butyl 1-methyl-1H-pyrazole-4-carboxylate]: the inhibition constant (Ki) came out at 90.6 nM.

Regarding `COc1cccc2[nH]c(C(=O)N[C@@H](CC(C)C)C(=O)N[C@@H](C[C@@H]3CCNC3=O)C(=O)COC(=O)c3cncn3C)cc12` [Example 45, (3S)-3-({N-[(4-methoxy-1H-indol-2-yl)carbonyl]-L-leucyl}amino)-2-oxo-4-[(3S)-2-oxopyrrolidin-3-yl]butyl 1-methyl-1H-imidazole-5-carboxylate], the Ki was found to be 40.7 nM.
